Like-named read-outs stand apart in the source and are kept apart here.
System: HCT-116 cells
Test: Cell growth test (CellTiter-Blue), HCT-116
Type: cell-based
Conditions: for cytotoxic effect relative to compound (1): 72 hours; for IC50: Homo sapiens, HCT-116, 48 h, 48 hours, read-out: IC50, cytotoxic effect
Protocol: The biological activity of compound (1), as well as that of its structural analogues, was studied in vitro on 7 different cancer cell lines: • HCT-116 (colorectal cancer) • U87 (glioblastoma) • K562 (myeloid leukemia) and K562 R • MDA-MB 231 (mammary adenocarcinoma) • MCF-7 (mammary adenocarcinoma) • A549 (pulmonary alveolar adenocarcinoma)
The cells selected for this study were incubated at 37° C. in the presence of compound (1) added in the culture medium at various concentrations and at various times. The set of experiments carried out made it possible to determine the degree of cytotoxicity of the compound tested (IC50), its capacity to induce cell death by apoptosis, in close dependence on extracellular superoxide anion for its activation. […]

| SMILES | cytotoxic effect relative to compound (1) (HCT-116, normoxia) | IC50 (HCT-116, hypoxia (2% O2)) | IC50 (HCT-116, normoxia) |
| --- | --- | --- | --- |
| OCCCn1cc(-c2ccccc2)c(-c2ccccc2)c1 [(3), 3-(3,4-Diphenyl-1H-pyrrol)propan-1-ol] | loss of cytotoxicity | – | – |
| O=C1C=C(c2cn(CCCO)cc2-c2ccccc2)C=C(C2=C(O)C(c3cn(CCCO)cc3-c3ccccc3)=CC(O)C2O)C1=O (centres unmarked) [dimer MH+ 631] | – | 10 µM | 7.5 µM |
| OCCCn1cc(-c2ccccc2)c(-c2ccc3c(c2)OCCO3)c1 [(2), 3-(3-(2,3-dihydrobenzo[b][1,4]dioxin-6-yl)-4-phenyl-1H-pyrrole-1-yl)propan-1-ol] | loss of cytotoxicity | – | – |
| CCOCCCn1cc(-c2ccccc2)c(-c2ccc(O)c(O)c2)c1 [(4), 4-(1-(3-Ethoxypropyl)-4-phenyl-1H-pyrrole-3-yl)benzene-1,2-diol] | does not substantially change the IC50 value | – | – |
